We go through 41 compounds from the PolyMetriX glass transition set.

The structures appear in SMILES notation.

`*C(=O)Nc1ccc(Oc2ccc(Oc3ccc(NC(=O)c4ccc5c(c4)C(=O)N(c4ccc(Oc6ccc(C7(c8ccc(Oc9ccc(N%10C(=O)c%11ccc(*)cc%11C%10=O)cc9)cc8)NC(=O)c8ccccc87)cc6)cc4)C5=O)cc3)cc2)cc1` (repeat unit) returned a glass transition temperature of 300.00 °C.
As for `*C(=O)Nc1ccc(Oc2ccc(Oc3ccc(NC(=O)c4ccc5c(c4)C(=O)N(c4ccc(S(=O)(=O)c6ccc(N7C(=O)c8ccc(*)cc8C7=O)cc6)cc4)C5=O)cc3)cc2)cc1` (repeat unit), the figure is 243.00 °C; as for `*C(=O)Nc1ccc(Oc2ccc(S(=O)(=O)c3ccc(Oc4ccc(NC(=O)c5ccc6c(c5)C(=O)N(c5ccc(Oc7ccc(C8(c9ccc(Oc%10ccc(N%11C(=O)c%12ccc(*)cc%12C%11=O)cc%10)cc9)NC(=O)c9ccccc98)cc7)cc5)C6=O)cc4)cc3)cc2)cc1` (repeat unit), 302.00 °C; as for `*C(=O)Nc1ccc(Oc2cccc(NC(=O)c3ccc4c(c3)C(=O)N(c3ccc(Oc5ccc(N6C(=O)c7ccc(*)cc7C6=O)cc5)cc3)C4=O)c2)cc1` (repeat unit), 236.00 °C.
As for `*C(=O)Nc1ccc(Oc2cccc(NC(=O)c3ccc4c(c3)C(=O)N(c3ccc(Oc5ccc6ccc(Oc7ccc(N8C(=O)c9ccc(*)cc9C8=O)cc7)cc6c5)cc3)C4=O)c2)cc1` (repeat unit), the figure is 263.00 °C; as for `*C(=O)Nc1ccc(Oc2cccc(NC(=O)c3ccc4c(c3)C(=O)N(c3ccc(Oc5cccc(N6C(=O)c7ccc(*)cc7C6=O)c5)cc3)C4=O)c2)cc1` (repeat unit), 211.00 °C; as for `*C(=O)Nc1ccc(Oc2cccc(Oc3ccc(NC(=O)c4ccc5c(c4)C(=O)N(c4ccc(Oc6ccc(C7(c8ccc(Oc9ccc(N%10C(=O)c%11ccc(*)cc%11C%10=O)cc9)cc8)NC(=O)c8ccccc87)cc6)cc4)C5=O)cc3)c2)cc1` (repeat unit), 288.00 °C.
As to `*C(=O)Nc1ccc(Oc2cccc3c(NC(=O)c4ccc5c(c4)C(=O)N(c4ccc(Oc6cccc7c(N8C(=O)c9ccc(*)cc9C8=O)cccc67)cc4)C5=O)cccc23)cc1` (repeat unit), the glass transition temperature was determined as 276.00 °C.
`*C(=O)Nc1ccc(Oc2ccccc2-c2ccccc2Oc2ccc(NC(=O)c3ccc4c(c3)C(=O)N(c3ccc(Oc5ccc(-c6ccc(Oc7ccc(N8C(=O)c9ccc(*)cc9C8=O)cc7)cc6)cc5)cc3)C4=O)cc2)cc1` (repeat unit) came in with a glass transition temperature of 239.00 °C.
`*C(=O)Nc1ccc(Oc2ccccc2-c2ccccc2Oc2ccc(NC(=O)c3ccc4c(c3)C(=O)N(c3ccc(Oc5ccc(N6C(=O)c7ccc(*)cc7C6=O)cc5)cc3)C4=O)cc2)cc1` (repeat unit): the glass transition temperature is 239.00 °C.
The result for `*C(=O)Nc1ccc(Oc2ccccc2-c2ccccc2Oc2ccc(NC(=O)c3ccc4c(c3)C(=O)N(c3ccc(Oc5cccc(Oc6ccc(N7C(=O)c8ccc(*)cc8C7=O)cc6)c5)cc3)C4=O)cc2)cc1` (repeat unit) reads 229.00 °C; that for `*C(=O)Nc1ccc(S(=O)(=O)c2ccc(NC(=O)c3ccc4c(c3)C(=O)N(c3ccc(S(=O)(=O)c5ccc(N6C(=O)c7ccc(*)cc7C6=O)cc5)cc3)C4=O)cc2)cc1` (repeat unit), 307.00 °C.
As for `*C(=O)Nc1ccc(S(=O)(=O)c2ccc(NC(=O)c3ccc4c(c3)C(=O)N(c3cccc(P(=O)(c5ccccc5)c5cccc(N6C(=O)c7ccc(*)cc7C6=O)c5)c3)C4=O)cc2)cc1` (repeat unit), the figure is 241.00 °C.
As for `*C(=O)Nc1ccc(Sc2ccc(NC(=O)c3ccc4c(c3)C(=O)N(c3ccc(Oc5ccc(N6C(=O)c7ccc(*)cc7C6=O)cc5)cc3)C4=O)cc2)cc1` (repeat unit), the figure is 284.00 °C.
The compound `*C(=O)c1ccc2c(c1)C(=O)N(c1ccc(Oc3ccc(C(=O)c4ccc(C(=O)c5ccc(Oc6ccc(N7C(=O)c8ccc(*)cc8C7=O)cc6)cc5)cc4)cc3)cc1)C2=O` (repeat unit) gave a glass transition temperature of 233.00 °C.
The result for `*C(=O)c1ccc2c(c1)C(=O)N(c1ccc(S(=O)(=O)c3ccc(NC(=O)c4cccc(C(=O)Nc5ccc(S(=O)(=O)c6ccc(N7C(=O)c8ccc(*)cc8C7=O)cc6)cc5)c4)cc3)cc1)C2=O` (repeat unit) reads 226.00 °C.
The result for `*Nc1ccc(*)cc1OCCCCCCCCCCCCCCCC` (repeat unit) reads 92.00 °C.
The result for `*Oc1ccc(C(=O)c2ccc(C(=O)c3ccc(*)cc3)cc2)cc1` (repeat unit) reads 157.00 °C; that for `*Oc1ccc(Oc2ccc(C(=O)Nc3ccc(Oc4ccc(S(=O)(=O)c5ccc(Oc6ccc(NC(=O)c7ccc(*)cc7)cc6)cc5)cc4)cc3)cc2)cc1-c1ccccc1` (repeat unit), 231.00 °C; that for `*Oc1ccc(Oc2ccc(C(=O)c3ccc(C(=O)c4ccc(*)cc4)c4ccccc34)cc2)cc1` (repeat unit), 200.03 °C.
Compound `*Oc1ccc(Oc2ccc(C(=O)c3ccc(C(=O)c4ccc(*)cc4)cc3)cc2)cc1-c1ccc(Cl)c(C(F)(F)F)c1` (repeat unit) came in with a glass transition temperature of 147.00 °C.
As for `*Oc1ccc2ccc(Oc3ccc(C(=O)Nc4ccc(Oc5ccc(S(=O)(=O)c6ccc(Oc7ccc(NC(=O)c8ccc(*)cc8)cc7)cc6)cc5)cc4)cc3)cc2c1` (repeat unit), the figure is 227.00 °C; as for `*Oc1ccc2ccc(Oc3ccc(C(=O)Nc4cccc(Oc5ccc(NC(=O)c6ccc(*)cc6)cc5)c4)cc3)cc2c1` (repeat unit), 164.00 °C.
The result for `*Oc1cccc(NC(=O)c2ccc(C(=O)Nc3ccc(*)cc3)cc2)c1` (repeat unit) reads 280.00 °C; that for `*Oc1cccc2ccc(Oc3ccc(NC(=O)c4ccc(Oc5ccc(Oc6ccc(C(=O)Nc7ccc(*)cc7)cc6)cc5)cc4)cc3)cc12` (repeat unit), 224.00 °C.
As for `*Oc1cccc2ccc(Oc3ccc(NC(=O)c4ccc(Oc5ccc(S(=O)(=O)c6ccc(Oc7ccc(C(=O)Nc8ccc(*)cc8)cc7)cc6)cc5)cc4)cc3)cc12` (repeat unit), the figure is 218.00 °C; as for `*Oc1cccc2ccc(Oc3ccc(NC(=O)c4ccc(Oc5cccc(Oc6ccc(C(=O)Nc7ccc(*)cc7)cc6)c5)cc4)cc3)cc12` (repeat unit), 196.00 °C; as for `*Oc1cccc2ccc(Oc3ccc(NC(=O)c4ccc(Oc5ccccc5Oc5ccc(C(=O)Nc6ccc(*)cc6)cc5)cc4)cc3)cc12` (repeat unit), 180.00 °C.
For the compound `*Sc1ccc(Nc2ccc(Nc3ccc(*)cc3)cc2)cc1` (repeat unit), the glass transition temperature amounted to 114.00 °C.
As for `*c1ccc(-c2nc3cc(Oc4ccc(NC(=O)c5cc(C(=O)Nc6ccc(Oc7ccc8nc(-c9ccccc9)c(*)nc8c7)cc6)cc(N6C(=O)c7ccccc7C6=O)c5)cc4)ccc3nc2-c2ccccc2)cc1` (repeat unit), the figure is 302.00 °C.
As for `*c1ccc(-c2nc3cc(Oc4ccc(NC(=O)c5cc(C(=O)Nc6ccc(Oc7ccc8nc(-c9ccccc9)c(-c9ccc(N%10C(=O)c%11ccc%12c%13c(ccc(c%11%13)C%10=O)C(=O)N(*)C%12=O)cc9)nc8c7)cc6)cc(N6C(=O)c7c(Cl)c(Cl)c(Cl)c(Cl)c7C6=O)c5)cc4)ccc3nc2-c2ccccc2)cc1` (repeat unit), the figure is 345.00 °C; as for `*c1ccc(-c2nc3cc(Oc4ccc(NC(=O)c5cc(C(=O)Nc6ccc(Oc7ccc8nc(-c9ccccc9)c(-c9ccc(N%10C(=O)c%11ccc%12c%13c(ccc(c%11%13)C%10=O)C(=O)N(*)C%12=O)cc9)nc8c7)cc6)cc(N6C(=O)c7ccccc7C6=O)c5)cc4)ccc3nc2-c2ccccc2)cc1` (repeat unit), 345.00 °C.
As for `*c1ccc(C(=O)Nc2ccc(Oc3ccc(S(=O)(=O)c4ccc(Oc5ccc(NC(=O)c6ccc(N7C(=O)c8ccc(-c9ccc%10c(c9)C(=O)N(*)C%10=O)cc8C7=O)cc6)cc5)cc4)cc3)cc2)cc1` (repeat unit), the figure is 258.00 °C; as for `*c1ccc(NC(=O)c2cc(C(=O)Nc3ccc(S(*)(=O)=O)cc3)cc(S(=O)(=O)c3ccccc3)c2)cc1` (repeat unit), 307.00 °C; as for `*c1ccc(NC(=O)c2cccc(C(=O)Nc3ccc(S(*)(=O)=O)cc3)c2)cc1` (repeat unit), 78.00 °C.
In turn, `*c1ccc(Oc2ccc(-c3nc4cc(Oc5ccc(NC(=O)c6cc(C(=O)Nc7ccc(Oc8ccc9nc(-c%10ccc([N+](=O)[O-])cc%10)c(*)nc9c8)cc7)cc(N7C(=O)c8ccccc8C7=O)c6)cc5)ccc4nc3-c3ccc([N+](=O)[O-])cc3)cc2)cc1` (repeat unit) returned a glass transition temperature of 305.00 °C.
As for `*c1ccc(Oc2ccc(-c3nc4cc(Oc5ccc(NC(=O)c6ccc7c(c6)C(=O)N(c6ccc(C(c8ccc(N9C(=O)c%10ccc(C(=O)Nc%11ccc(Oc%12ccc%13nc(-c%14ccc([N+](=O)[O-])cc%14)c(*)nc%13c%12)cc%11)cc%10C9=O)cc8)(C(F)(F)F)C(F)(F)F)cc6)C7=O)cc5)ccc4nc3-c3ccc([N+](=O)[O-])cc3)cc2)cc1` (repeat unit), the figure is 303.00 °C.
The compound `*c1ccc(Oc2ccc(-c3nc4cc(Oc5ccc(NC(=O)c6ccc7c(c6)C(=O)N(c6ccc(C(c8ccc(N9C(=O)c%10ccc(C(=O)Nc%11ccc(Oc%12ccc%13nc(-c%14ccccc%14)c(*)nc%13c%12)cc%11)cc%10C9=O)cc8)(C(F)(F)F)C(F)(F)F)cc6)C7=O)cc5)ccc4nc3-c3ccccc3)cc2)cc1` (repeat unit) gave a glass transition temperature of 289.00 °C.
As for `*c1ccc2c(c1)C(=O)N(c1ccc(C(=O)Nc3ccc(Oc4ccccc4Oc4ccc(NC(=O)c5ccc(N6C(=O)c7ccc(C(*)(C(F)(F)F)C(F)(F)F)cc7C6=O)cc5)cc4)cc3)cc1)C2=O` (repeat unit), the glass transition temperature was determined as 281.00 °C.
As for `*c1ccc2c(c1)C(=O)N(c1cccc(C(=O)Nc3ccc(Oc4ccccc4Oc4ccc(NC(=O)c5cccc(N6C(=O)c7ccc(C(*)(C(F)(F)F)C(F)(F)F)cc7C6=O)c5)cc4)cc3)c1)C2=O` (repeat unit), the figure is 265.00 °C; as for `*c1cccc(C(=O)Nc2ccc(Oc3ccc(Oc4ccc(Oc5ccc(NC(=O)c6cccc(N7C(=O)c8ccc(-c9cccc%10c9C(=O)N(*)C%10=O)cc8C7=O)c6)cc5)cc4)cc3)cc2)c1` (repeat unit), 260.00 °C.
